Values joined by “and” are separate entries in the source; they are usually repeats but may differ in a detail not shown here. Equal entries are not always repeated. Numbers after ± are expanded uncertainties.
Test: xn = mol fraction of the nth substance listed
Conditions: Fluid (supercritical or subcritical phases); for speed of sound: Frequency=5 MHz, Pulse-echo method, x1 = 0.925; for mass density: 263.15 K, Vibrating tube method, x1 = 0.97

SMILES: O=C=O [carbon dioxide] + CO
- speed of sound (263.13 K, 7970 kPa): 694.6 ± 1 m/s and 693.1 ± 1 m/s
- speed of sound (263.13 K, 9990 kPa): 715.1 ± 1 m/s
- speed of sound (263.13 K, 10000 kPa): 714.3 ± 1 m/s
- speed of sound (263.13 K, 14940 kPa): 760.5 ± 1.1 m/s
- speed of sound (263.13 K, 14960 kPa): 759.3 ± 1.1 m/s
- speed of sound (263.13 K, 19990 kPa): 799.6 ± 1.1 m/s
- speed of sound (263.13 K, 20000 kPa): 800.7 ± 1.1 m/s
- speed of sound (263.13 K, 24970 kPa): 836 ± 1.1 m/s
- speed of sound (263.13 K, 24980 kPa): 835.1 ± 1.1 m/s
- speed of sound (263.13 K, 29960 kPa): 867.4 ± 1.2 m/s
- speed of sound (263.13 K, 29990 kPa): 868.4 ± 1.2 m/s
- speed of sound (263.13 K, 34990 kPa): 898.5 ± 1.2 m/s
- speed of sound (263.13 K, 35000 kPa): 897.7 ± 1.2 m/s
- speed of sound (263.13 K, 39950 kPa): 926.1 ± 1.2 m/s
- speed of sound (263.13 K, 39970 kPa): 925.5 ± 1.2 m/s
- speed of sound (263.13 K, 44970 kPa): 952.1 ± 1.2 m/s
- speed of sound (263.13 K, 44980 kPa): 951.6 ± 1.2 m/s
- speed of sound (263.13 K, 49970 kPa): 977 ± 1.3 m/s and 976.2 ± 1.3 m/s
- speed of sound (263.13 K, 54950 kPa): 999.5 ± 1.3 m/s
- speed of sound (263.13 K, 54990 kPa): 1000.3 ± 1.3 m/s
- speed of sound (263.13 K, 59950 kPa): 1021.6 ± 1.3 m/s
- speed of sound (263.13 K, 59990 kPa): 1022.6 ± 1.3 m/s
- speed of sound (263.13 K, 64980 kPa): 1043.7 ± 1.3 m/s
- speed of sound (263.13 K, 65000 kPa): 1043 ± 1.3 m/s
- speed of sound (263.13 K, 69960 kPa): 1063.9 ± 1.4 m/s
- speed of sound (263.13 K, 70000 kPa): 1063.4 ± 1.4 m/s
- speed of sound (263.13 K, 74960 kPa): 1083.5 ± 1.4 m/s and 1082.7 ± 1.4 m/s
- speed of sound (263.13 K, 79980 kPa): 1101.6 ± 1.4 m/s
- speed of sound (263.13 K, 80000 kPa): 1102.6 ± 1.4 m/s
- speed of sound (263.13 K, 89990 kPa): 1137.3 ± 1.5 m/s
- speed of sound (263.13 K, 90000 kPa): 1138.2 ± 1.5 m/s
- speed of sound (263.13 K, 99990 kPa): 1171.5 ± 1.5 m/s
- speed of sound (263.13 K, 100000 kPa): 1170.8 ± 1.5 m/s
- speed of sound (263.13 K, 109970 kPa): 1202.4 ± 1.5 m/s
- speed of sound (263.13 K, 109980 kPa): 1203.2 ± 1.5 m/s
- speed of sound (263.13 K, 119950 kPa): 1232.3 ± 1.6 m/s
- speed of sound (263.13 K, 119980 kPa): 1233.2 ± 1.6 m/s
- speed of sound (263.13 K, 129980 kPa): 1261.7 ± 1.6 m/s
- speed of sound (263.13 K, 129990 kPa): 1260.9 ± 1.6 m/s
- speed of sound (263.13 K, 139970 kPa): 1288.8 ± 1.6 m/s
- speed of sound (263.13 K, 139980 kPa): 1288.1 ± 1.6 m/s
- speed of sound (263.13 K, 149950 kPa): 1315 ± 1.7 m/s
- speed of sound (263.13 K, 149970 kPa): 1314.1 ± 1.7 m/s
- speed of sound (263.13 K, 159970 kPa): 1340 ± 1.7 m/s
- speed of sound (263.13 K, 159980 kPa): 1339.2 ± 1.7 m/s
- speed of sound (263.13 K, 170010 kPa): 1364.1 ± 1.7 m/s
- speed of sound (263.13 K, 170040 kPa): 1363.4 ± 1.7 m/s
- speed of sound (263.13 K, 180000 kPa): 1386.5 ± 1.8 m/s
- speed of sound (263.13 K, 180020 kPa): 1387.5 ± 1.8 m/s
- speed of sound (263.13 K, 190000 kPa): 1409.9 ± 1.8 m/s
- speed of sound (263.13 K, 190010 kPa): 1409 ± 1.8 m/s
- speed of sound (263.14 K, 7970 kPa): 694.8 ± 1 m/s and 695.2 ± 1 m/s
- speed of sound (263.14 K, 9960 kPa): 715.4 ± 1 m/s
- speed of sound (263.14 K, 10020 kPa): 715.9 ± 1 m/s
- speed of sound (263.14 K, 14950 kPa): 760.8 ± 1.1 m/s
- speed of sound (263.14 K, 14990 kPa): 761 ± 1.1 m/s
- speed of sound (263.14 K, 19990 kPa): 801 ± 1.1 m/s
- speed of sound (263.14 K, 20020 kPa): 800.7 ± 1.1 m/s
- speed of sound (263.14 K, 24970 kPa): 836.4 ± 1.1 m/s
- speed of sound (263.14 K, 24990 kPa): 836.3 ± 1.1 m/s
- speed of sound (263.14 K, 29960 kPa): 868.8 ± 1.2 m/s
- speed of sound (263.14 K, 30000 kPa): 868.9 ± 1.2 m/s
- speed of sound (263.14 K, 34950 kPa): 898.5 ± 1.2 m/s
- speed of sound (263.14 K, 34980 kPa): 898.5 ± 1.2 m/s
- speed of sound (263.14 K, 39990 kPa): 926.5 ± 1.2 m/s and 926.8 ± 1.2 m/s
- speed of sound (263.14 K, 45030 kPa): 952.7 ± 1.2 m/s
- speed of sound (263.14 K, 45040 kPa): 952.8 ± 1.2 m/s
- speed of sound (263.14 K, 49950 kPa): 977.1 ± 1.3 m/s
- speed of sound (263.14 K, 49960 kPa): 977.1 ± 1.3 m/s
- speed of sound (263.14 K, 54980 kPa): 1000.5 ± 1.3 m/s
- speed of sound (263.14 K, 55010 kPa): 1000.5 ± 1.3 m/s
- speed of sound (263.14 K, 59950 kPa): 1022.5 ± 1.3 m/s
- speed of sound (263.14 K, 59970 kPa): 1022.9 ± 1.3 m/s
- speed of sound (263.14 K, 64970 kPa): 1043.9 ± 1.3 m/s and 1044.2 ± 1.4 m/s
- speed of sound (263.14 K, 69950 kPa): 1064.3 ± 1.4 m/s
- speed of sound (263.14 K, 69990 kPa): 1064.1 ± 1.4 m/s
- speed of sound (263.14 K, 74970 kPa): 1083.7 ± 1.4 m/s
- speed of sound (263.14 K, 74990 kPa): 1084.1 ± 1.4 m/s
- speed of sound (263.14 K, 79990 kPa): 1102.8 ± 1.4 m/s
- speed of sound (263.14 K, 80000 kPa): 1102.8 ± 1.4 m/s
- speed of sound (263.14 K, 89950 kPa): 1138.4 ± 1.5 m/s
- speed of sound (263.14 K, 90020 kPa): 1138.8 ± 1.5 m/s
- speed of sound (263.14 K, 99980 kPa): 1172.1 ± 1.5 m/s
- speed of sound (263.14 K, 100000 kPa): 1171.8 ± 1.5 m/s
- speed of sound (263.14 K, 109980 kPa): 1203.3 ± 1.5 m/s
- speed of sound (263.14 K, 110000 kPa): 1203.8 ± 1.5 m/s
- speed of sound (263.14 K, 119980 kPa): 1233.5 ± 1.6 m/s
- speed of sound (263.14 K, 120000 kPa): 1233.4 ± 1.6 m/s
- speed of sound (263.14 K, 130000 kPa): 1262 ± 1.6 m/s
- speed of sound (263.14 K, 130010 kPa): 1262.1 ± 1.6 m/s
- speed of sound (263.14 K, 139980 kPa): 1289.1 ± 1.6 m/s
- speed of sound (263.14 K, 140010 kPa): 1289.5 ± 1.6 m/s
- speed of sound (263.14 K, 149950 kPa): 1315.1 ± 1.7 m/s
- speed of sound (263.14 K, 150000 kPa): 1315.4 ± 1.7 m/s
- speed of sound (263.14 K, 159950 kPa): 1340.4 ± 1.7 m/s
- speed of sound (263.14 K, 159960 kPa): 1340.2 ± 1.7 m/s
- speed of sound (263.14 K, 169960 kPa): 1364.5 ± 1.7 m/s
- speed of sound (263.14 K, 169980 kPa): 1364.2 ± 1.7 m/s
- speed of sound (263.14 K, 179970 kPa): 1388 ± 1.8 m/s
- speed of sound (263.14 K, 179990 kPa): 1387.5 ± 1.8 m/s
- speed of sound (263.14 K, 190000 kPa): 1410.3 ± 1.8 m/s
- speed of sound (263.14 K, 190020 kPa): 1409.9 ± 1.8 m/s
- mass density (4000 kPa): 989.7 ± 0.8 kg/m3
- mass density (4025 kPa): 990.23 ± 0.8 kg/m3
- mass density (4050 kPa): 990.17 ± 0.8 kg/m3
- mass density (4075 kPa): 990.12 ± 0.8 kg/m3
- mass density (4100 kPa): 990.09 ± 0.8 kg/m3
- mass density (4125 kPa): 990.27 ± 0.8 kg/m3
- mass density (4150 kPa): 990.42 ± 0.8 kg/m3
- mass density (4175 kPa): 990.57 ± 0.8 kg/m3
- mass density (4200 kPa): 990.66 ± 0.8 kg/m3
- mass density (4225 kPa): 990.83 ± 0.8 kg/m3
- mass density (4250 kPa): 990.91 ± 0.8 kg/m3
- mass density (4275 kPa): 991.06 ± 0.8 kg/m3
- mass density (4300 kPa): 991.18 ± 0.8 kg/m3
- mass density (4325 kPa): 991.32 ± 0.8 kg/m3
- mass density (4350 kPa): 991.48 ± 0.8 kg/m3
- mass density (4375 kPa): 991.65 ± 0.8 kg/m3
- mass density (4400 kPa): 991.73 ± 0.8 kg/m3
- mass density (4425 kPa): 991.89 ± 0.8 kg/m3
- mass density (4450 kPa): 992.03 ± 0.8 kg/m3

Source: the NIST ThermoML archive (doi:10.1016/j.jct.2016.03.026)
